From patent publication US20060069110A1, “Substituted heterocyclic compounds and methods of use” (priority 2004, published 2006)

What follows are compounds tested on THP1 cells (LPS induced TNF release) (assay: Lipopolysaccharide-Activated THP1 Cell TNF Production Assay). Conditions: Homo sapiens, THP-1; THP1 cells, bacterial LPS, secreted TNF-α after 3 h at 37° C.; read-out: IC50 values in the THP1 cell assay (LPS induced TNF release).
Assay type: cell-based
Procedure: Lipopolysaccharide-Activated THP1 Cell TNF Production Assay
THP1 cells are resuspended in fresh THP1 media (RPMI 1640, 10% heat-inactivated FBS, 1×PGS, 1×NEAA, plus 30 μM βME) at a concentration of 1E6/mL. One hundred microliters of cells per well are plated in a polystyrene 96-well tissue culture. One microgram per mL of bacterial LPS is prepared in THP1 media and is transferred to the wells. Test compounds are dissolved in 100% DMSO and are serially diluted 3 fold in a polypropylene 96-well microtiter plate (drug plate). HI control and LO control wells contain only DMSO. One microliter of test compound from the drug plate followed by 10 μL of LPS are transferred to the cell plate. The treated cells are induced to synthesize and secrete TNF-α at 37° C. for 3 h. Forty microliters of conditioned media are transferred to a 96-well polypropylene plate containing 110 μL of ECL buffer (50 mM Tris-HCl pH 8.0, 100 mM NaCl, 0.05% Tween 20, 0.05% NaN3 and 1% FBS) supplemented with 0.44 nM MAB610 monoclonal Ab (R&D Systems), 0.34 nM ruthenylated AF210NA polyclonal Ab (R&D Systems) and 44 μg/mL sheep anti-mouse M280 Dynabeads (Dynal). After a 2 h incubation at RT with shaking, the reaction is read on the ECL M8 Instrument (IGEN Inc.). A low voltage is applied to the ruthenylated TNF-α immune complexes, which in the presence of TPA (the active component in Origlo), results in a cyclical redox reaction generating light at […]. The amount of secreted TNF-α in the presence of compound compared with that in the presence of DMSO vehicle alone (HI control) is calculated using the formula: % control (POC)=(cpd−average LO)/(average HI−average LO)*100. Data (consisting of POC and inhibitor concentration in μM) is fitted to a 4-parameter equation (y=A+((B−A)/(1+((×/C)ôD))), where A is the minimum y (POC) value, B is the maximum y (POC), C is the x (cpd concentration) at the point of inflection and D is the slope factor) using a Levenburg-Marquardt non-linear regression algorithm.

SMILES	IC50 [µM]
CN(c1ccnc(NCCc2ccccc2)n1)c1nccc(-c2ccccc2)n1 [Example 184, N^4-Methyl-N^2-phenethyl-N^4-(4-phenylpyrimidin-2-yl)pyrimidine-2,4-diamine]	≤ 20
COc1nc(-c2ccccc2)nc(N(C)c2ccnc(N[C@@H](C)Cc3cccc([C@@H](C)N)c3)n2)n1 [Example 126, N^2-((S)-1-(3-((R)-1-Aminoethyl)phenyl)propan-2-yl)-N^4-(4-methoxy-6-phenyl-1,3,5-triazin-2-yl)-N^4-methylpyrimidine-2,4-diamine]	≤ 20
C[C@@H](Cc1cccc(CN)c1)Nc1nccc(N(C)c2ccnc(-c3ccccc3)n2)n1 [Example 89, (S)-N^2-(1-(3-(Aminomethyl)phenyl)propan-2-yl)-N^4-methyl-N^4-(2-phenylpyrimidin-4-yl)pyrimidine-2,4-diamine]	≤ 20
CN(c1cccc(-c2ccco2)n1)c1ccnc(NCCc2ccccc2)n1 [Example 149, N^4-(6-(Furan-2-yl)pyridin-2-yl)-N^4-methyl-N^2-phenethylpyrimidine-2,4-diamine]	≤ 20
CN(c1ccnc(N[C@@H](CNC(=O)CN)Cc2ccccc2)n1)c1ccnc(-c2ccccc2)n1 [Example 52, (R)-2-Amino-N-(2-(4-(methyl(2-phenylpyrimidin-4-yl)amino)pyrimidin-2-ylamino)-3-phenylpropyl)acetamide]	≤ 20
CN(c1ccnc(N[C@H](CCO)c2ccccc2)n1)c1ccnc(-c2ccccc2)n1 [Example 31, (R)-3-(4-(Methyl(2-phenylpyrimidin-4-yl)amino)pyrimidin-2-ylamino)-3-phenylpropan-1-ol]	≤ 20
CC(C)NC[C@@H](Cc1ccccc1)Nc1nccc(N(C)c2ccnc(-c3ccccc3)n2)n1 [Example 49, (R)-N^2-(3-(Isopropylamino)-1-phenylpropan-2-yl)-N^4-methyl-N^4-(2-phenyl-pyrimidin-4-yl)pyrimidine-2,4-diamine]	≤ 20
COc1cccc(-c2cccc(N(C)c3ccnc(NCCc4ccccc4)n3)n2)c1 [Example 141, N^4-(6-(3-Methoxyphenyl)pyridin-2-yl)-N^4-methyl-N^2-phenethylpyrimidine-2,4-diamine]	≤ 20
CN(c1cncc(-c2ccccc2)n1)c1ccnc(NCCc2ccccc2Cl)n1 [Example 123, N^2-(2-Chlorophenethyl)-N^4-methyl-N^4-(6-phenylpyrazin-2-yl)pyrimidine-2,4-diamine]	≤ 20
CC(Cc1ccc(F)c(CO)c1)Nc1nccc(N(C)c2cc(-c3ccccc3)c(=O)n(C)c2)n1 (centres unmarked) [Example 177, 5-((2-(1-(4-Fluoro-3-(hydroxymethyl)phenyl)propan-2-ylamino)pyrimidin-4-yl)(methyl)amino)-1-methyl-3-phenylpyridin-2(1 H)-one]	≤ 20
C[C@@H](N)CC(=O)N1CCC(Nc2nccc(N(C)c3ccnc(-c4ccccc4)n3)n2)CC1 [Example 44, (R)-3-Amino-1-(4-(4-(methyl(2-phenylpyrimidin-4-yl)amino)pyrimidin-2-ylamino)-piperidin-1-yl)butan-1-one]	≤ 20
C[C@@H](Cc1cccc([C@@H](C)N)c1)Nc1nccc(N(C)c2ccnc(-c3ccccc3)n2)n1 [Example 1, N^2-((S)-1-(3-((R)-1-Aminoethyl)phenyl)propan-2-yl)-N^4-methyl-N^4-(2-phenylpyrimidin-4-yl)pyrimidine-2,4-diamine]	≤ 20
C[C@H](N)C(=O)N[C@H]1CC[C@H](Nc2nccc(N(C)c3ccnc(-c4ccccc4)n3)n2)CC1 [Example 25, (S)-2-Amino-N-(4-(4-(methyl(2-phenylpyrimidin-4-yl)amino)pyrimidin-2-ylamino)cyclohexyl)propanamide]	≤ 20
C[C@@H](Cc1cccc(-n2ccnc2)c1)Nc1nccc(N(C)c2ccnc(-c3ccccc3)n2)n1 [Example 116, N^2-((S)-1-(3-(1 H-Imidazol-1-yl)phenyl)propan-2-yl)-N^4-methyl-N^4-(2-phenyl-pyrimidin-4-yl)pyrimidine-2,4-diamine]	≤ 20
CC(=O)N[C@H]1CC[C@H](Nc2nccc(N(C)c3ccnc(-c4ccccc4)n3)n2)CC1 [Example 24, N-(4-(4-(Methyl(2-phenylpyrimidin-4-yl)amino)pyrimidin-2-ylamino)cyclohexyl)-acetamide]	≤ 20
Clc1nnc(Nc2ccnc(N3CCCC3Cc3ccccc3)n2)cc1-c1ccccc1 (centres unmarked) [Example 182, N-(2-(2-Benzylpyrrolidin-1-yl)pyrimidin-4-yl)-6-chloro-5-phenylpyridazin-3-amine]	≤ 20

Next, values leading:

IC50 [µM]	SMILES
≤ 20	CN(c1cccc(-c2ccsc2)n1)c1ccnc(NCCc2ccccc2)n1 [Example 147]
≤ 20	CC(=O)N1CCC(Nc2nccc(N(C)c3cc(-c4ccccc4)c(=O)n(C)c3)n2)CC1 [Example 175, 5-((2-(1-Acetylpiperidin-4-ylamino)pyrimidin-4-yl)(methyl)amino)-1-methyl-3-phenylpyridin-2(1H)-one]
≤ 20	CN(c1ccnc(NCCc2ccc3c(n2)NCCC3)n1)c1ccnc(-c2ccccc2)n1 [Example 114, N^4-Methyl-N^4-(2-phenylpyrimidin-4-yl)-N^2-(2-(5,6,7,8-tetrahydro-1,8-naphthyridin-2-yl)ethyl)pyrimidine-2,4-diamine]
≤ 20	C[C@H](N)c1ccc(CCNc2nccc(N(C)c3ccnc(-c4ccccc4)n3)n2)cc1 [Example 28, (S)-N^2-(4-(1-Aminoethyl)phenethyl)-N^4-methyl-N^4-(2-phenylpyrimidin-4-yl)-pyrimidine-2,4-diamine]
≤ 20	COc1nc(-c2ccccc2)nc(N(C)c2ccnc(N[C@@H](C)Cc3cccc(CNC(=O)[C@H](C)N)c3)n2)n1 [Example 125, (S)-N-((S)-3-((S)-2-(4-((4-Methoxy-6-phenyl-1,3,5-triazin-2-yl)(methyl)amino)-pyrimidin-2-ylamino)propyl)benzyl)-2-aminopropanamide]
≤ 20	Cc1cc(N(C)c2ccnc(-c3ccccc3)n2)nc(N[C@@H](C)Cc2cccc([C@@H](C)N)c2)n1 [Example 36, N^2-((S)-1-(3-((R)-1-Aminoethyl)phenyl)propan-2-yl)-N^4,6-dimethyl-N^4-(2-phenylpyrimidin-4-yl)pyrimidine-2,4-diamine]
≤ 20	COc1ccccc1-c1cccc(N(C)c2ccnc(NCCc3ccccc3)n2)n1 [Example 142, N^4-(6-(2-Methoxyphenyl)pyridin-2-yl)-N^4-methyl-N^2-phenethylpyrimidine-2,4-diamine]
≤ 20	CN(c1ccnc(N[C@@H](CCO)Cc2ccccc2)n1)c1ccnc(-c2ccccc2)n1 [(3R)-3-((4-(methyl(2-phenyl-4-pyrimidinyl)amino)-2-pyrimidinyl)amino)-4-phenyl-1-butanol]
≤ 20	CN(c1ccnc(NCC(c2cccnc2)N(C)C)n1)c1ccnc(-c2ccccc2)n1 (centres unmarked) [Example 109, N^2-(2-(Dimethylamino)-2-(pyridin-3-yl)ethyl)-N^4-methyl-N^4-(2-phenylpyrimidin-4-yl)pyrimidine-2,4-diamine]
≤ 20	CC(Cc1cccc(CN)c1)Nc1nccc(N(C)c2cc(N)nc(-c3ccccc3)n2)n1 (centres unmarked) [Example 181, N^4-(2-(1-(3-(Aminomethyl)phenyl)propan-2-ylamino)pyrimidine-4-yl)-N^4-methyl-2-phenylpyrimidine-4,6-diamine]
